Columns and labels:
[1] = test system: 501Mel (melanoma) cell line; experiment: MTT cytotoxicity assay, 501Mel; type: cell-based, human; settings: for cytotoxic activity 501Mel: 0.0032 to 50 µM, 72 h
Method: (§1) ATCC CCL 247), 501Mel (melanoma; RRID: CVCL_4633), and MCF‐7 (breast adenocarcinoma; ATCC HTB 22), along with non‐tumor cells line NIH/3T3 (mouse embryonic fibroblast; ATCC CRL 1658). […] Cells were kept at 37°C in a humidified atmosphere containing 5% CO2. […] At the end of the incubation period, the culture medium was replaced with a fresh medium containing MTT solution (0.5 mg/mL) and further incubated for 3 h. The MTT solution was then removed, and the formazan crystals formed were dissolved in 150 µL of DMSO. Absorbance for each well was measured at 570 nm, and then the values thereof were normalized in the percentage of viable cells based on that of the negative control.

[2] = test system: HCT‐116 (human colorectal carcinoma) cell line; experiment: MTT cytotoxicity assay, HCT-116; type: cell-based; settings: for cytotoxic activity HCT‐116: MTT, 0.0032 to 50 µM, 72 h
Method: as §1

[3] = test system: MCF‐7 (breast adenocarcinoma) cell line; experiment: MTT cytotoxicity assay, MCF-7; type: cell-based, human; settings: for cytotoxic activity MCF‐7: MTT, 0.0032 to 50 µM, 72 h
Method: as §1

[4] = test system: NIH/3T3 (mouse embryonic fibroblast) cell line; experiment: MTT cytotoxicity assay, non-tumor NIH/3T3; type: cell-based; settings: for cytotoxic activity NIH/3T3: 0.0032 to 50 µM, 72 h
Method: as §1

Compound	cytotoxic activity 501Mel ([1]; MTT)	cytotoxic activity HCT‐116 [2]	cytotoxic activity MCF‐7 [3]	cytotoxic activity NIH/3T3 [4]	Selectivity Index (SI) 501Mel ([1]; 501Mel versus NIH/3T3)	IC50 ([1]; Homo sapiens, MTT, 72 h incubation) [nM]	Selectivity Index (SI) HCT‐116 ([2]; HCT-116 versus NIH/3T3)	Selectivity Index (SI) MCF‐7 ([3]; MCF-7 versus NIH/3T3)	IC50 ([4]; Mus musculus, NIH3T3, 72 h incubation, non-tumor cells) [nM]
COc1ccc(-c2coc3cc(OC)c(O)cc3c2=O)cc1 [Compound 2, Alfalone]	no cytotoxic activity	no cytotoxic activity	no cytotoxic activity	no cytotoxic activity	–	–	–	–	–
COc1ccc(-c2coc3c(OC)c(O)ccc3c2=O)cc1 [Compound 3, 8‐O‐methylretusin]	no cytotoxic activity	no cytotoxic activity	no cytotoxic activity	no cytotoxic activity	–	–	–	–	–
COc1cccc2c1C(=O)c1c(O)c3c(c(O)c1C2=O)C[C@@](O)(C(=O)CO)C[C@@H]3O[C@H]1C[C@H](N)[C@H](O)[C@H](C)O1 [Doxorubicin, reference compound]	–	–	–	–	2.91	120	7.0	11.67	350

From PMC12533803, “Rotenoids from the Roots of Vicia faba L. (Fabaceae): Structural Characterization, Cytotoxic Effects, and Molecular Docking” (Chemistry & Biodiversity, 2025)
